Laboratory results as given in article PMC10714334, “Developing multispecies quorum-sensing modulators based on the Streptococcus mitis competence-stimulating peptide” (The Journal of Biological Chemistry, 2023).
Non-standard residues stand in square brackets, D forms with d. Residues, ends and D or L forms follow the SMILES beside them. No end group written: not given here.

Experiments:
[1] = test system: defibrinated rabbit red blood cells; assay: hemolysis assay; type: cell-based; details: mean ± S.D., SD
Protocol: A single colony of S. mitis ATCC 49456 was grown for 16 h at 37 °C with 5% CO2 in 5 mL THY media (pH 7.3). Overnight cultures were then diluted 1:10 in fresh THY media. Samples were prepared in clear bottom 96 -well microtiter plates. Experimental samples were prepared by adding 196 µL of the 1:10 diluted culture and 2 µL of a 1 mM S. mitis-CSP-2 and the lead S. mitis-CSP-2 analogs (lead activator, S. mitis-CSP-2-n11, and lead inhibitor, S. mitis-CSP-2-E1Af10r16), or 196 µL of fresh THY media and 2 µL of a 1 mM S. mitis-CSP-2/ S. mitis-CSP-2 analog stock.
Two µL of DMSO was added to each well. A positive control was prepared by adding 2 µL of a 1% Triton X solution and 2 µL of DMSO in 196 µL THY media, and negative controls were prepared by adding 4 µL DMSO in either 196 µL 1:10 diluted culture or 196 µL THY media. The 96-well microtiter plate was then incubated for 2 h at 37 °C with 5% CO 2, after which the optical density at 600 nm (OD600) was recorded and hemolysis was assessed. A 1 mL portion of defibrinated rabbit red blood cells ( VWR International) was aliquoted into a sterile 1.5 mL microcentrifuge tube, and centrifuged at 2,000 rpm for 2 min. Following centrifugation, the top layer was aliquoted off, and red blood cells were gently washed with sterile1 mL 1X PBS. This process was repeated for a total of three times, until following centrifugation the top layer was mostly clear. Washed red blood cells were resuspended in sterile 1 mL 1X PBS solution, and a 15 µL aliquot was added to each well of the 96 -well microtiter plate. The plate was then incubated for 30 min at 37 °C. Following incubation, the plate was centrifuged for 4 min at 4 °C at 1600 rpm .
Experimental wells were then diluted 1:5 in distilled water to prevent saturation of the detector by the positive control. The absorbance at 420 nm (OD420) was then measured for each well.
Experiments were performed in triplicate on three separate days. Data are presented as the percent hemolysis relative to the .01% Triton X positive control. Results are expressed as the mean +/ - the standard deviation of three independent experiments. […]

S. mitis ComD-2 receptor = assay: luminescence reporter competitive inhibition assay (comX expression); type: cell-based, Streptococcus mitis; details: same reporter strain; competition against 1 μM native S. mitis-CSP-2; 30 min at 37 °C; triplicate on three separate days
Protocol: As a positive control, 2 μl of S. mitis-CSP-2 and 2 μl of DMSO were added to the same well in triplicate. As a negative control, 4 μl of DMSO was added in triplicate. Then, 2 μl of 15 mg/ml D-luciferin in distilled water was added to each experimental or control well, after which 194 μl of bacteria was added, and the plate was incubated for 30 min at 37 °C. Following incubation, the A600 and luminescence of each experimental well were measured. Results were reported as percent activation, which is the ratio between the luminescence (presented as relative luminescence units, RLU/A600) of the analog and that of the positive control. […] GraphPad Prism was used to calculate the IC50 values, which are the concentration of inhibitor where the response (or binding) is reduced by half. Experiments were performed in triplicate on three separate days.
Antagonism assays were performed at 10 μM concentration of peptides against 1 µM concentration of S. mitis-CSP-2. S. mitis-CSP-2 (1 µM) was used as the positive control (100%) while DMSO as the negative control (0%). For all figures, comX expression is presented as relative luminescence units (RLU) divided by measured cultural optical density (OD). Percent (%) ComD activation was measured by normalizing the RLU/OD value obtained for each peptide to that of the native S. mitis-CSP-2. The results are averages from three replicates and representative of three independent experiments. Error bars represent the standard error of the mean of nine values.
Figure S-8. Primary antagonism screening assay data for t he S. mitis-CSP-2 alanine scan and D-amino acid […]
determine its IC50 value.
Figure S-9. Primary antagonism screening assay data for t he S. mitis-CSP-2 truncated analogs . S. mitis- […]

[2] = test system: pneumococcus ComD1 receptor; details: cited from earlier work
From the text: (§1) Table 5 EC50 or IC50 values of select Streptococcus mitis-CSP-2–based pneumococcal QS modulators against the pneumococcus ComD1 and ComD2 and the S. mitis ComD-2 receptors ^a | column: Streptococcus pneumoniae ^b / ComD1 / EC50 or IC50∗ (nM) || In our previous work, we utilized the S. mitis-CSP-2 scaffold to develop analogs capable of modulating the two pneumococcal ComD receptors at low nanomolar concentrations ([2]). We wanted to evaluate whether the optimization of the S. mitis-CSP-2 scaffold to the pneumococcus ComD receptors affected the ability of the modified analogs to interact with the S. mitis ComD-2 receptor.

[3] = test system: pneumococcus ComD2 receptor; details: cited from earlier work
From the text: as §1, with “/ ComD2” for “/ ComD1”

[4] = peptide alone with S. mitis ATCC 49456 culture

Q: Which results are given for CC[C@H](C)[C@H](NC(=O)[C@H](C)N)C(=O)N[C@@H](CCCNC(=N)N)C(=O)N[C@@H](CCC(N)=O)C(=O)N[C@H](C(=O)N[C@@H](Cc1c[nH]cn1)C(=O)N[C@@H](CC(N)=O)C(=O)N[C@H](C(=O)N[C@@H](Cc1ccccc1)C(=O)N[C@H](Cc1ccccc1)C(=O)N[C@@H](CC(N)=O)C(=O)N[C@@H](Cc1ccccc1)C(=O)N[C@@H](Cc1ccccc1)C(=O)N[C@@H](CCCCN)C(=O)N[C@@H](CCCNC(=N)N)C(=O)N[C@H](CCCNC(=N)N)C(=O)O)[C@@H](C)CC)[C@@H](C)O [S. mitis-CSP-2-E1Af10r16] (H-AIRQTHNIF[dF]NFFKR[dR]-OH)?
A: hemolysis relative to Triton X positive control ([1]; inhibitor together with S. mitis-CSP-2, with S. mitis ATCC 49456 culture): -3.1% ±16%; hemolysis relative to Triton X positive control ([1]; inhibitor together with S. mitis-CSP-2 in THY media): -2.3% ±7.0%; hemolysis relative to Triton X positive control [1, 4]: -6.9% ±19%

Q: For CC[C@H](C)[C@H](NC(=O)[C@H](CC(N)=O)NC(=O)[C@H](Cc1c[nH]cn1)NC(=O)[C@@H](NC(=O)[C@H](CCC(N)=O)NC(=O)[C@H](CCCNC(=N)N)NC(=O)[C@@H](NC(=O)[C@@H](N)CCC(=O)O)[C@@H](C)CC)[C@@H](C)O)C(=O)N[C@@H](Cc1ccccc1)C(=O)N[C@@H](Cc1ccccc1)C(=O)N[C@H](CC(N)=O)C(=O)N[C@@H](Cc1ccccc1)C(=O)N[C@@H](Cc1ccccc1)C(=O)N[C@@H](CCCCN)C(=O)N[C@@H](CCCNC(=N)N)C(=O)N[C@@H](CCCNC(=N)N)C(=O)O [S. mitis-CSP-2-n11] (H-EIRQTHNIFF[dN]FFKRR-OH), which “hemolysis relative to Triton X positive control” value [1, 4] is on record?
A: -9.8% ±30%

Q: Which “hemolysis, positive control” value ([1]; 0.01% Triton X in THY media) does the source give for CC(C)(C)CC(C)(C)c1ccc(OCCO)cc1 [Triton X, reference compound] here?
A: 100% ± 15%

Q: For “AIRQTHNIFFFLFKRR [S. mitis-CSP-2-E1AN11FF12L]”, which IC50 (S. mitis ComD-2 receptor) is on record?
A: > 1 µM

Q: And the “inhibitory activity against S. pneumoniae ComD1 receptor” value [2]?
A: no inhibitory activity

Q: What about the “inhibitory activity against S. pneumoniae ComD2 receptor” value [3] of the same molecule?
A: no inhibitory activity

Q: For “EIRQTHNIFFNFFKRR [S. mitis-CSP-2, reference compound]”, which “hemolysis relative to Triton X positive control” value [1, 4] is on record?
A: -9.6% ±24%
